Where “and” joins values, the source holds several entries; their conditions need not be identical. Equal entries are not always repeated. Entries after “also recorded” stand apart in the source; their conditions may differ.
Key:
[1] = water soluble antioxidants and chelators, rapidly cleared by kidneys or liver; cited from earlier work
rats = details: intraperitoneal; cited from earlier work
[2] = ORAC (oxygen-radical-absorbance-capacity) score; type: biochemical
Method: As should be appreciated from the following table, OSR has an exceptionally high ORAC (oxygen-radical-absorbance-capacity) score.
The ORAC score is measured by a compound or elixer's ability to intercept reactive oxygen species, free radicals preventing them from oxidizing a water soluble fluorescent vitamin-E derivative. OSR has the ability in the body to protect vitamin-E (a fat soluble vitamin) and other fat soluble natural compounds such as lipids from damage by oxidizing free radicals since it partitions into the hydrophobic areas where they exist and reacts with free radicals more effectively than they do, thereby scavenging the hydroxyl free radicals and preventing them from doing damage. […] OSR is more capable of reacting with these radicals than vitamin-E and, accordingly, OSR should provide even better protection. In fact, OSR should salvage vitamin E and D in vivo.

[3] = Toxicity / LD-50 in test animals; type: in vivo
From the text: In fact, OSR is so non-toxic that an LD-50 could not be identified and was established as greater than 5 grams per kilogram body weight.

[4] = Kinetic study: plasma half-life, tissue distribution and clearance; type: in vivo
From the text: The mitochondria, especially if abnormal or damaged by heavy metals or radiation, are the main producers of the free radicals that cause cellular damage to the membranes, proteins or nucleic acids (DNA, RNA). Therefore, OSR is positioned to intercept these free radicals before they do damage and the ORAC scores show us OSR is exceptional at scavenging these toxic chemicals. Thus, OSR operates as an antioxidant in a more efficient and effective level than antioxidants generally known in the art.
It should also be appreciated that OSR is cleared from all tissues tested by over 90% twenty-four hours after ingestion. Therefore, no toxic build-up of OSR occurs in the mammal.
Preferred dosage forms for oral administration include the isolated compounds in powder form. Such powders may be taken up with a swoop and spread onto food or mixed into drinks for easy consumption without bad taste. The pure compounds may be pre-mixed with certain dietary ingredients such as butter, olive oil, corn oil, albumin, whey or other foods which will help in absorption of the compounds by the mere process of dissolving them. Using OSR dissolved in corn oil, it was determined that it takes two hours post ingestion for the maximum level of OSR to show up in the plasma of all tested animals.

Storage stability = type: physicochemical; details: sealed plastic test tubes, sixteen months, room temperature
From the text: OSR also has excellent stability when stored in sealed plastic test tubes with less than three percent breakdown occurring at sixteen months of storage at room temperature. Most antioxidants break down very rapidly when exposed to air or water but OSR is exceptional in this regards.

blood GSH, GSSG = assay: Effect of daily OSR on blood GSH, GSSG levels and GSH/GSSG ratios; type: in vivo, human; details: 10 subjects, 200 mg of OSR per day
From the text: Effect of daily administration of OSR on key biochemical parameters. […] Also, the major improvement seemed to result from the very significant decrease in oxidized glutathione (GSSG) instead of a total increase in all forms of glutathione. This would be best explained by OSR scavenging hydroxyl free radicals salvaging the GSH by preventing its oxidation to GSSG. This change occurred in 10 of 10 subjects.
All were in reasonable health with no obvious bacterial infections. GSH/GSSG ratios increased in all primarily due to the drop in GSSG levels in all subjects. […] The average tGSH/GSSG ratio almost doubled caused by a near average halving of the GSSG levels.

[5] = system: cysteine, methionine, homocysteine; assay: Effect of OSR on blood sulfur containing amino acid levels; type: in vivo, human; details: 10 patients, two month period
From the text: To determine if OSR changed the level of cysteine, the rate limiting amino acid in glutathione synthesis, the level of all thiol containing amino acids was done for the same 10 patients for a two month period. […] The homocysteine level was high in patient #9, a person diagnosed with Alzheimer's disease, over the two month testing their levels dropped to near normal levels.
The possible exception was the homocysteine levels in patient #9, a person with Alzheimer's disease.

[6] = system: glutathione-S-transferase (GST); assay: Effect of OSR on Glutathione-S-transferase (GST) levels; type: in vivo, human; details: for Glutathione-S-transferase (GST) levels: lines = patients 1-10
From the text: GST is an enzyme that uses glutathione (GSH) as a substrate to covalently modify certain organic toxins by ‘transferring GSH’ to a P-450 enzyme oxidized site on the toxin. […] GST was non-detectable in all 10 patients at the start of the study and was detectable in all 10 patients at the end of the study. The change in the redox level most likely had something to do with the appearance of this enzyme. It is a common mechanism in cellular regulation that the lowering of a substrate (e.g. glutathione) needed at several locations results in the suppressed expression of the enzyme (e.g. GST) that use this substrate for reactions that are less necessary to support survival. The buildup of GSH most likely induces the expression of GST and this buildup accounts for the induction of new GST synthesis.

[7] = system: rats injected with mercuric chloride; assay: Protective effects of OSR on rats injected with mercuric chloride; type: in vivo, rat; set-up: key to survival (Alive/Dead): A = Alive; D = Dead; details: for survival (Alive/Dead): Rat 1-3
Method: Protective effects of OSR on rats injected subcutaneously with mercuric chloride.
Our experiments were designed around this value.
For each of the experiments nine, 5-7 weeks old, rats were chosen. They were divided into three groups and they were fed rat chow and water ad libitum.
The mercuric chloride was dissolved in PBS/DMSO and injected intraperitoneally at time zero.
The compound OSR was dissolved in 0.75 ml DMSO and 0.25 ml PBS. Injection was subcutaneous under the skin covering the stomach. These were done 20 min. after the injection of the mercuric chloride.

[8] = Affinity for heavy metals; type: binding
From the text: (§1) Also, copper and zinc are primarily found in a water environment (hydrophilic aspects) of the body whereas OSR partitions into the hydrophobic aspects. This separation may play a role in the lack of OSR removing copper and zinc. However, in diseases with excess free copper, iron or zinc, OSR is likely to be able to bind and decrease the toxicity of these metals.

[9] = Effect of OSR treatment on essential elements; type: in vivo; details: treatment with OSR
From the text: as §1

Solubility = type: physicochemical
From the text: In fact, the compounds in U.S. Pat. No. 6,586,600 were mostly ineffective at treating environmental contaminations of heavy metal due to their insolubility in water and many organic solvents. The conventional wisdom is that any metal chelator has to be water soluble to be effective is evidenced by the currently known chelators such as dimercapopropane sulfonate (DMPS), dimercaptosuccinic acid (DMSA), ethylenediaminetetraacetic acid (EDTA) and even the natural mammalian heavy metal chelator glutathione. These observations made the use of the compounds questionable for any mammalian based treatment regarding the removal of charged toxic metals like Hg^2+, Pb^2+, and Cd^2+ which are water soluble and would most likely be located in the aqueous aspects of mammalian tissues. Additionally, any compound that is not water soluble nor soluble in most organic solvents would not be expected to pass the intestinal endothelial membrane barrier and enter the blood and tissues of the mammal. Further, the compound(s) would have to cross the cell membrane to be able to interact with and bind the intracellular located heavy metal responsible for the toxic effects. It would also have to be able to cross the blood brain barrier to be effective for any neurotoxic heavy metal effect. […]

Oc1ccc(C=Cc2cc(O)cc(O)c2)cc1 [resveratrol]
half-life [1]: less than one to two

[Cl][Hg][Cl] [mercury chloride]
LD 50 (rats): 3.2 mg/kg body weight

O=C(O)C(S)C(S)C(=O)O (centres unmarked) [DMSA, dimercaptosuccinic acid]
half-life [1]: less than one to two

O=S(=O)(O)CC(S)CS (centres unmarked) [DMPS, dimercaptopropane sulfonate]
half-life [1]: less than one to two

O=C(NCCS)c1cccc(C(=O)NCCS)c1 [OSR, N,N′-bis(2-mercaptoethyl)isophthalamide]
ORAC Score [2]: 192,400 μmoleTE/100 g
LD-50 [3]: greater than 5 grams per kilogram body weight
toxicity ([3]; levels up to 5,000 mg per day): without toxicity
OSR levels relative to peak values seen at hour 2 ([4]; 24 hours post-ingestion, OSR dissolved in corn oil): 4-12%
time post ingestion for the maximum level of OSR in plasma ([4]; OSR dissolved in corn oil, all tested animals): two
blood brain barrier / tissue entry ([4]; kinetic study, all tissues tested): crosses the blood brain barrier
half-life in plasma ([4]; plasma of test animals): about six to seven
cleared from all tissues tested ([4]; twenty-four hours after ingestion): over 90%
breakdown on storage (Storage stability): less than three
GSH levels, result in words (blood GSH, GSSG; two months): increased slightly in 7 of 10
redox ratio (GSH/GSSG), result in words (blood GSH, GSSG; whole blood, OSR taken regularly, approximately 60 days): significantly increase; also recorded: dramatically improved
changes in cysteine, methionine or homocysteine levels, result in words [5]: No significant consistent changes
glutathione-S-transferase (GST), result in words ([6]; 10 patients, after OSR treatment): consistently elevated in all 10 patients
Glutathione-S-transferase (GST) levels ([6]; time 1 month): 0.58 ng/mL and 0.46 ng/mL
Glutathione-S-transferase (GST) levels ([6]; time 2 months): 0.53 ng/mL and 0.43 ng/mL and 0.37 ng/mL and 0.32 ng/mL and 0.63 ng/mL and 0.48 ng/mL
survival (Alive/Dead) ([7]; 0 hr, mercury chloride 2 mg/kg body weight, OSR 0.5 millimoles/kg subcutaneous 20 min after): A
survival (Alive/Dead) ([7]; 0 hr, mercury chloride 14 mg/kg body weight, OSR 1 mM/kg body weight subcutaneous 20 min after): A
survival (Alive/Dead) ([7]; 1 week, mercury chloride 2 mg/kg body weight, OSR 0.5 millimoles/kg subcutaneous 20 min after): A
survival (Alive/Dead) ([7]; 1 week, mercury chloride 14 mg/kg body weight, OSR 1 mM/kg body weight subcutaneous 20 min after): A
survival (Alive/Dead) ([7]; 6 hr, mercury chloride 2 mg/kg body weight, OSR 0.5 millimoles/kg subcutaneous 20 min after): A
survival (Alive/Dead) ([7]; 6 hr, mercury chloride 14 mg/kg body weight, OSR 1 mM/kg body weight subcutaneous 20 min after): A
survival (Alive/Dead) ([7]; 12 hr, mercury chloride 2 mg/kg body weight, OSR 0.5 millimoles/kg subcutaneous 20 min after): A
survival (Alive/Dead) ([7]; 12 hr, mercury chloride 14 mg/kg body weight, OSR 1 mM/kg body weight subcutaneous 20 min after): A
survival (Alive/Dead) ([7]; 24 hr, mercury chloride 2 mg/kg body weight, OSR 0.5 millimoles/kg subcutaneous 20 min after): A
survival (Alive/Dead) ([7]; 24 hr, mercury chloride 14 mg/kg body weight, OSR 1 mM/kg body weight subcutaneous 20 min after): A
survival (Alive/Dead) ([7]; 48 hr, mercury chloride 2 mg/kg body weight, OSR 0.5 millimoles/kg subcutaneous 20 min after): A
survival (Alive/Dead) ([7]; 48 hr, mercury chloride 14 mg/kg body weight, OSR 1 mM/kg body weight subcutaneous 20 min after): D and A
protection from mercury induced toxic effects (blood in urine and feces, death, weight loss, ataxia) ([7]; rats given 0.6 lethal dose of mercury chloride, 10-fold excess of OSR twenty-thirty minutes later): protected from mercury induced toxic effects
excretion route of OSR bound mercury ([7]; rats given mercury chloride and OSR): primarily excreted through the fecal route
protection from death ([7]; rats injected with 1-5 levels (or higher) of lethal doses of mercury chloride, single 10-fold excess of OSR dissolved in DMSO): protected from death
affinity for mercury, lead, arsenic and cadmium [8]: exceptionally high affinity
lowering of essential elements copper, iron and zinc [9]: does not result in a significant lowering
lipid solubility (Solubility): lipid soluble

N[C@@H](CCC(=O)N[C@@H](CS)C(=O)NCC(=O)O)C(=O)O [glutathione]
half-life [1]: less than one to two

From patent US9907787B2, “Method of supplementing the diet and ameliorating oxidative stress” (priority 2008, dated 2018)
